Results reported in PubChem BioAssay AID1259411 (Chemical Carcinogenesis Research Information System (CCRIS), 2018).
Calls of active or inactive are those of the source. How the calls were made is not given here.

Tested on: rodent carcinogenicity bioassays, tumor incidence
Assay: CCRIS carcinogenicity studies
Procedure, shortened: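 NCI-built, expert-reviewed records of carcinogenicity and related test outcomes (mutagenicity, tumor promotion/inhibition) compiled from published and report sources, historical span 1985-2011, not updated.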

With `C=C/C=N/O` the carcinogen call (Species: HAMSTER, Strain/Sex: SYRIAN/MALE, Route: GAVAGE, Dose: 0, 2 MG/WK FOR 53 WK (STUDY DURATION: 92 WK)) was “inactive; negative”, the carcinogen call (Species: RAT, Strain/Sex: F344/FEMALE, Route: ORAL, Dose: 0, 320 MG/L IN DRINKING WATER 5 D/WK FOR 100 WK (STUDY DURATION: 130 WK)) was “inactive; negative” and the carcinogen call (Species: RAT, Strain/Sex: F344/FEMALE, Route: ORAL, Dose: 0, 800 MG/L IN DRINKING WATER 5 D/WK FOR 30 WK (STUDY DURATION: 130 WK)) was “inactive; negative”. The carcinogen call (Species: RAT, Strain/Sex: F344/MALE, Route: ORAL, Dose: 0, 320 MG/L IN DRINKING WATER 5 D/WK FOR 100 WK (STUDY DURATION: 130 WK)) was “inactive; negative” and the carcinogen call (Species: RAT, Strain/Sex: F344/MALE, Route: ORAL, Dose: 0, 800 MG/L IN DRINKING WATER 5 D/WK FOR 30 WK (STUDY DURATION: 130 WK)) was “inactive; negative”.

With `C=CC(O)c1ccc2c(c1)OCO2` (stereo not drawn) the carcinogen call (Species: MOUSE, Strain/Sex: CD-1/FEMALE, Route: ORAL, Dose: 0.083% IN DIET FROM D 1 TO 10, 0.17% FROM D 11 TO 20, 0.55% THEREAFTER TO 12 MO, Tumor Site: Type of Lesion: LIVER: HEPATOCELLULAR CARCINOMA) was “active; positive”, the carcinogen call (Species: MOUSE, Strain/Sex: CD-1/MALE, Route: SUBCUTANEOUS, Dose: TOTAL DOSE: 3.18 UMOL IN TRIOCTANOIN OVER 22 D, Tumor Site: Type of Lesion: LIVER: HEPATOCELLULAR CARCINOMA) was “active; positive” and the carcinogen call (Species: RAT, Strain/Sex: STRAIN-CD/MALE, Route: ORAL, Dose: 0.25% IN DIET FOR 17 MO, 0.55% IN DIET FOR 10 MO, Tumor Site: Type of Lesion: LIVER: HEPATOCELLULAR CARCINOMA) was “active; positive”.

For `COc1cccc2c1C(=O)c1c(O)c3c(c(O)c1C2=O)C[C@@](O)(C(=O)CO)C[C@@H]3O[C@H]1C[C@H](N)[C@H](O)[C@H](C)O1`, the carcinogen call (Species: RAT, Strain/Sex: SPRAGUE-DAWLEY/FEMALE, Route: INTRAVENOUS, Dose: 0, 5, 10 MG/KG IN SALINE SOLUTION ONCE (STUDY DURATION: 1 YR), Dose: 0, 5, 10 MG/KG IN SALINE SOLUTION ONCE (STUDY DURATION: 1 YR), Tumor Site: Type of Lesion: MAMMARY GLAND: FIBROADENOMA, ADENOCARCINOMA) was “active; positive” and the carcinogen call (Species: RAT, Strain/Sex: SPRAGUE-DAWLEY/MALE, Route: INTRAVENOUS, Dose: 0, 5, 10 MG/KG IN SALINE SOLUTION ONCE (STUDY DURATION: 1 YR), Dose: 0, 5, 10 MG/KG IN SALINE SOLUTION ONCE (STUDY DURATION: 1 YR), Tumor Site: Type of Lesion: MAMMARY GLAND: ADENOCARCINOMA) was “active; positive”.

With `OCc1c2ccccc2c2ccc3cccc4ccc1c2c43` the carcinogen call (Species: MOUSE, Strain/Sex: B6C3F1/MALE, Route: INTRAPERITONEAL, Dose: 0, 0.0025, 0.005, 0.015 UMOL/G ONCE AT 12 DAYS OF AGE (STUDY DURATION: 10 MO), Dose: 0, 0.0025, 0.005, 0.015 UMOL/G ONCE AT 12 DAYS OF AGE (STUDY DURATION: 10 MO), Tumor Site: Type of Lesion: LIVER: HEPATOMA) was “active; positive” and the carcinogen call (Species: RAT, Strain/Sex: SPRAGUE-DAWLEY/FEMALE, Route: SUBCUTANEOUS, Dose: 0, 0.2 UMOL 3/WK FOR 20 DOSES (STUDY DURATION: 52 WK), Tumor Site: Type of Lesion: INJECTION SITE: SARCOMA) was “active; positive”.

In the case of `c1ccc2c(c1)ccc1cc3ccc4c(c3nc12)[C@H]1O[C@H]1CC4`, the carcinogen call (Species: MOUSE, Strain/Sex: CD-1/FEMALE, Route: INTRAPERITONEAL, Dose: 0, 28 NMOL (TOTAL DOSE) ADMINISTERED AS 1/7 OF DOSE WITHIN 24 HR AFTER BIRTH, 2/7 OF DOSE AT 8 D OLD, 4/7 OF DOSE AT 15, Tumor Site: Type of Lesion: LUNG: TUMOR) is reported as “active; positive” and the carcinogen call (Species: MOUSE, Strain/Sex: CD-1/MALE, Route: INTRAPERITONEAL, Dose: 0, 28 NMOL (TOTAL DOSE) ADMINISTERED AS 1/7 OF DOSE WITHIN 24 HR AFTER BIRTH, 2/7 OF DOSE AT 8 D OLD, 4/7 OF DOSE AT 15, Tumor Site: Type of Lesion: LIVER: TUMOR, LUNG: TUMOR) is reported as “active; positive”.

`c1ccc2c(c1)c1c(c3cccnc32)O1` was tested, and the carcinogen call (Species: MOUSE, Strain/Sex: CD-1/FEMALE, Route: INTRAPERITONEAL, Dose: 0, 5, 10 AND 20 µL OF A 0.05 MOLAR SOLUTION ON DAYS 1, 8 AND 15 OF LIFE RESPECTIVELY (TOTAL DOSE: 1.75 UMOL) (STUDY DURA, Dose: 0, 5, 10 AND 20 µL OF A 0.05 MOLAR SOLUTION ON DAYS 1, 8 AND 15 OF LIFE RESPECTIVELY (TOTAL DOSE: 1.75 UMOL) (STUDY DURA) was “inactive; negative” and the carcinogen call (Species: MOUSE, Strain/Sex: CD-1/MALE, Route: INTRAPERITONEAL, Dose: 0, 5, 10 AND 20 µL OF A 0.05 MOLAR SOLUTION ON DAYS 1, 8 AND 15 OF LIFE RESPECTIVELY (TOTAL DOSE: 1.75 UMOL) (STUDY DURA, Dose: 0, 5, 10 AND 20 µL OF A 0.05 MOLAR SOLUTION ON DAYS 1, 8 AND 15 OF LIFE RESPECTIVELY (TOTAL DOSE: 1.75 UMOL) (STUDY DURA) was “inactive; negative”.

For `O=[N+]([O-])c1c2ccc3ccccc3c2cc2ccc3ccccc3c12`, the carcinogen call (Species: MOUSE, Strain/Sex: B6C3F1/MALE, Route: INTRAPERITONEAL, Dose: 0, 400 NMOL IN 35 µL DMSO (TOTAL DOSE) ADMINISTERED IN DOSES OF 1/7, 2/7, AND 4/7 OF THE TOTAL DOSE ON DAYS 1,8, AND 15, Tumor Site: Type of Lesion: LIVER :ADENOMA) was “active; positive”.

`O=CCC=O` was tested, and the carcinogen call (Species: MOUSE, Strain/Sex: B6C3F1/FEMALE, Route: GAVAGE, Dose: 0, 60, 120 MG/KG IN DISTILLED WATER 5D/WK FOR 102 WK (STUDY DURATION: 105 WK), Dose: 0, 60, 120 MG/KG IN DISTILLED WATER 5D/WK FOR 102 WK (STUDY DURATION: 105 WK)) was “inactive; negative”, the carcinogen call (Species: MOUSE, Strain/Sex: B6C3F1/FEMALE, Route: INTRAPERITONEAL, Dose: 0, 1500 NMOL TOTAL DOSE, 1/3 AND 2/3 OF THE TOTAL DOSE ADMINISTERED AT 8 AND 15 DAYS OF AGE RESPECTIVELY, ANIMALS TERMIN) was “inactive; negative” and the carcinogen call (Species: MOUSE, Strain/Sex: B6C3F1/FEMALE, Route: INTRAPERITONEAL, Dose: 0, 3000 NMOL TOTAL DOSE, 1/3 AND 2/3 OF THE TOTAL DOSE ADMINISTERED AT 8 AND 15 DAYS OF AGE RESPECTIVELY, ANIMALS TERMIN) was “inactive; negative”. The carcinogen call (Species: MOUSE, Strain/Sex: B6C3F1/MALE, Route: GAVAGE, Dose: 0, 60, 120 MG/KG IN DISTILLED WATER 5D/WK FOR 102 WK (STUDY DURATION: 104 WK), Dose: 0, 60, 120 MG/KG IN DISTILLED WATER 5D/WK FOR 102 WK (STUDY DURATION: 104 WK)) was “inactive; negative”, the carcinogen call (Species: MOUSE, Strain/Sex: B6C3F1/MALE, Route: INTRAPERITONEAL, Dose: 0, 1500 NMOL TOTAL DOSE, 1/3 AND 2/3 OF THE TOTAL DOSE ADMINISTERED AT 8 AND 15 DAYS OF AGE RESPECTIVELY, ANIMALS TERMIN) was “inactive; negative” and the carcinogen call (Species: MOUSE, Strain/Sex: B6C3F1/MALE, Route: INTRAPERITONEAL, Dose: 0, 3000 NMOL TOTAL DOSE, 1/3 AND 2/3 OF THE TOTAL DOSE ADMINISTERED AT 8 AND 15 DAYS OF AGE RESPECTIVELY, ANIMALS TERMIN) was “inactive; negative”. For the same molecule, the carcinogen call (Species: RAT, Strain/Sex: F344/FEMALE, Route: GAVAGE, Dose: 0, 50, 100 MG/KG IN DISTILLED WATER 5D/WK FOR 102 WK (STUDY DURATION: 105 WK), Dose: 0, 50, 100 MG/KG IN DISTILLED WATER 5D/WK FOR 102 WK (STUDY DURATION: 105 WK), Tumor Site: Type of Lesion: THYROID GLAND: FOLLICULAR CELL ADENOMA, THYROID GLAND: FOLLICULAR CELL ADENOMA OR CARCINOMA) was “active; positive” and the carcinogen call (Species: RAT, Strain/Sex: F344/MALE, Route: GAVAGE, Dose: 0, 50, 100 MG/KG IN DISTILLED WATER 5D/WK FOR 102 WK (STUDY DURATION: 104 WK), Dose: 0, 50, 100 MG/KG IN DISTILLED WATER 5D/WK FOR 102 WK (STUDY DURATION: 104 WK), Tumor Site: Type of Lesion: THYROID GLAND: FOLLICULAR CELL ADENOMA OR CARCINOMA, PANCREATIC ISLETS: ISLET CELL ADENOMA, PANCREATIC ISLETS: ISLET CEL, Tumor Site: Type of Lesion: THYROID GLAND: FOLLICULAR CELL ADENOMA OR CARCINOMA, PANCREATIC ISLETS: ISLET CELL ADENOMA, PANCREATIC ISLETS: ISLET CEL) was “active; positive”.

For `Nc1ncc([N+](=O)[O-])s1`, the carcinogen call (Species: MOUSE, Strain/Sex: B6C3F1/FEMALE, Route: ORAL, Dose: 0, 50, 100 PPM IN DIET, Dose: 0, 50, 100 PPM IN DIET) was “inactive; negative”, the carcinogen call (Species: MOUSE, Strain/Sex: B6C3F1/MALE, Route: ORAL, Dose: 0, 50, 100 PPM IN DIET, Dose: 0, 50, 100 PPM IN DIET) was “inactive; negative” and the carcinogen call (Species: RAT, Strain/Sex: F344/FEMALE, Route: ORAL, Dose: 0, 300, 600 PPM IN DIET, Dose: 0, 300, 600 PPM IN DIET) was “inactive; negative”.
